Assay results published in US9174966B2, “Crystalline forms of 6-(1H-imidazol-1-yl)-2-phenylquinazoline” (ROTTAPHARM S.P.A., priority 2009, dated 2015).
Several values for one entry are separate records, joined by “and”; a condition that tells them apart may be missing. Equal values may be shown once.

Experiments:
[1] = Thermal stability of the crystalline form (XRPD)
[2] = Dissolution rate in water at 37° C.; format: physicochemical; conditions: 2 mg of product in 40 mL of water at 37° C., 500 rpm, absorbance at 260 nm
Method: (§1) The sample of 6-(1H-imidazol-1-yl)-2-phenylquinazoline phosphate, form A, is stirred in an aqueous solution of NaCl 0.9%, at 500 rpm, so as to obtain a suspension (70 mg in 2 mL), for 24 hours at 37° C. […] The dissolution rate is measured by adding 2 mg of product to 40 mL of water at 37° C., stirring at 500 rpm, and measuring the absorbance at 260 nm every 0.05 min; the dissolution rate is found to be 1.9×10^−4 gr/min.

[3] = Solubility in aqueous solution of NaCl 0.9% (UV absorbance at 260 nm); format: physicochemical; conditions: aqueous NaCl 0.9%, stirred 500 rpm, 24 hours at 37° C.; for solubility at 24 h: aqueous solution of NaCl 0.9%, 37 °C, saline or isotonic, thermodynamic from solid
Method: The solubility is 0.6 mg/mL. […]
The sample of 6-(1H-imidazol-1-yl)-2-phenylquinazoline phosphate, form A, is stirred in an aqueous solution of NaCl 0.9%, at 500 rpm, so as to obtain a suspension (50 mg in 2 mL), for 24 hours at 37° C.
as §1

[4] = Hygroscopicity noted for the isolated crystalline product; format: physicochemical; conditions: as noted in the preparation example
[5] = 90° C., 12 hours (or at least 12 hours), XRPD
[6] = heating at/to 90° C., time not stated, succinate

6-(1H-imidazol-1-yl)-2-phenylquinazoline maleate hemihydrate [maleate salt form B]
thermal stability of crystalline form ([1]; 40° C., RH 85%, 7 days, XRPD): partially converted into form A
thermal stability of crystalline form [1, 5]: converted into form A

c1ccc(-c2ncc3cc(-n4ccnc4)ccc3n2)cc1 [form B, 6-(1H-imidazol-1-yl)-2-phenylquinazoline monohydrate]
thermal stability of crystalline form ([1]; 40° C., RH 85%, 7 days, XRPD, monohydrate): appearance of the signals of form E
behaviour in variable temperature experiment (VT-XRPD) ([1]; heated to between 40° C. and 180° C.): conversion into form E

c1ccc(-c2ncc3cc(-n4ccnc4)ccc3n2)cc1 [form C, 6-(1H-imidazol-1-yl)-2-phenylquinazoline monohydrate]
thermal stability of crystalline form ([1]; 40° C., RH 85%, 5 days (at least 5 days for polymorph A), XRPD): stable
thermal stability of crystalline form ([1]; 90° C., 3 hours, XRPD, monohydrate): complete conversion into form E

c1ccc(-c2ncc3cc(-n4ccnc4)ccc3n2)cc1 [form D, 6-(1H-imidazol-1-yl)-2-phenylquinazoline]
thermal stability of crystalline form ([1]; 40° C., RH 85%, 7 days, XRPD): stable
thermal stability of crystalline form ([1]; 90° C., 3 hours, XRPD): stable

O=C(O)/C=C/C(=O)O.c1ccc(-c2ncc3cc(-n4ccnc4)ccc3n2)cc1 [fumarate form A, 6-(1H-imidazol-1-yl)-2-phenylquinazoline fumarate]
thermal stability of crystalline form ([1]; 40° C., RH 85%, 7 days, XRPD): stable
dissolution rate [2]: 2.67×10^−5 gr/min
solubility at 24 h [3]: 1200 µg/mL
hygroscopicity of the isolated product [4]: non-hygroscopic

Cl.c1ccc(-c2ncc3cc(-n4ccnc4)ccc3n2)cc1 [hydrochloride salt form B, 6-(1H-imidazol-1-yl)-2-phenylquinazoline hydrochloride]
hygroscopicity of the isolated product [4]: hygroscopic

O=P(O)(O)O.c1ccc(-c2ncc3cc(-n4ccnc4)ccc3n2)cc1 [phosphate, form A, 6-(1H-imidazol-1-yl)-2-phenylquinazoline phosphate]
dissolution rate ([2]; phosphate): 1.73×10^−4 gr/min and 1.9×10^−4 gr/min
solubility ([3]; phosphate): 3600 µg/mL
solubility at 24 h [3]: 6200 µg/mL

O=C(O)CCC(=O)O.c1ccc(-c2ncc3cc(-n4ccnc4)ccc3n2)cc1 [succinate salt form B, 6-(1H-imidazol-1-yl)-2-phenylquinazoline succinate]
thermal stability of crystalline form [1, 6]: converted into form A
hygroscopicity of the isolated product ([4]; succinate): non-hygroscopic

O=C(O)CCC(=O)O.c1ccc(-c2ncc3cc(-n4ccnc4)ccc3n2)cc1 [succinate salt form C, 6-(1H-imidazol-1-yl)-2-phenylquinazoline succinate]
thermal stability of crystalline form [1, 6]: stable
hygroscopicity of the isolated product ([4]; succinate): not hygroscopic

O.O.O.O.O=C(O)C(O)C(O)C(=O)O.c1ccc(-c2ncc3cc(-n4ccnc4)ccc3n2)cc1 [tartrate salt form B, 6-(1H-imidazol-1-yl)-2-phenylquinazoline (L)-tartrate tetrahydrate]
thermal stability of crystalline form ([1]; 40° C., RH 85%, 7 days, XRPD): stable
thermal stability of crystalline form [1, 5]: gives rise to the amorphous form

O.O=C(O)C(O)C(O)C(=O)O.c1ccc(-c2ncc3cc(-n4ccnc4)ccc3n2)cc1 [tartrate salt form C, 6-(1H-imidazol-1-yl)-2-phenylquinazoline (L)-tartrate monohydrate]
thermal stability of crystalline form ([1]; 40° C., RH 85%, 7 days, XRPD): stable
thermal stability of crystalline form [1, 5]: stable

O=C(O)C(O)C(O)C(=O)O.c1ccc(-c2ncc3cc(-n4ccnc4)ccc3n2)cc1 [tartrate salt form D, 6-(1H-imidazol-1-yl)-2-phenylquinazoline (L)-tartrate]
thermal stability of crystalline form ([1]; 40° C., RH 85%, 7 days, XRPD): gives an XRPD corresponding to form A
thermal stability of crystalline form [1, 5]: an amorphous product
